Laboratory results published in patent US10131652B2, “Pyrimidinyloxy benzene derivatives as herbicides” (E. I. DU PONT DE NEMOURS AND COMPANY, priority 2014, dated 2018).
Read-outs that look alike come from different tables or passages of the source.

Legend:
Type in all cases: in vivo
[1] = tested on: chickweed (common chickweed, Stellaria media); experiment: Test D postemergence plant response; settings: Stellaria media, post-emergence
In short: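 Visual 0–100 rating vs controls (0 = no effect, 100 = complete control), scored 13–15 d after postemergence spray. Plants 1- to 4-leaf stage (2–18 cm), potted in peat/vermiculite mix, kept in greenhouse.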

[2] = tested on: waterhemp (common waterhemp, Amaranthus rudis); experiment: Test D pre-/postemergence plant response; settings: Amaranthus tuberculatus; for pest or weed control at 16 g/ha: 16 g ai/ha; for pest or weed control at 31 g/ha: 31 g ai/ha; for pest or weed control at 62 g/ha: 62 g ai/ha; for pest or weed control at 125 g/ha: 125 g ai/ha
In short: (§1)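 Each compound, in non-phytotoxic solvent with surfactant, was sprayed onto soil right after sowing or onto young plants 2 to 18 cm tall. After 13 to 15 days under greenhouse conditions, effects were judged visually against controls on a 0 (no effect) to 100 (complete control) scale.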

[3] = tested on: yellow nutsedge (Cyperus esculentus); experiment: Test D pre-/postemergence plant response; settings: Cyperus; for pest or weed control at 16 g/ha: 16 g ai/ha; for pest or weed control at 31 g/ha: 31 g ai/ha; for pest or weed control at 62 g/ha: 62 g ai/ha; for pest or weed control at 125 g/ha: 125 g ai/ha
In short: as §1

[4] = tested on: barnyardgrass (Echinochloa crus-galli); experiment: Test D pre-/postemergence plant response; settings: Echinochloa crus-galli; for pest or weed control at 16 g/ha: 16 g ai/ha; for pest or weed control at 16 g/ha / pest or weed control at 31 g/ha: scale 0 to 100 (0 no effect, 100 complete control); for pest or weed control at 31 g/ha: 31 g ai/ha; for pest or weed control at 62 g/ha: 62 g ai/ha; for pest or weed control at 125 g/ha: 125 g ai/ha
In short: as §1

[5] = tested on: giant foxtail (Setaria faberii); experiment: Test D pre-/postemergence plant response; settings: Setaria faberi; for pest or weed control at 16 g/ha: 16 g ai/ha; for pest or weed control at 31 g/ha: 31 g ai/ha; for pest or weed control at 62 g/ha: 62 g ai/ha; for pest or weed control at 125 g/ha: 125 g ai/ha
In short: as §1

[6] = tested on: oilseed rape (Brassica napus); experiment: Test D pre-/postemergence plant response; settings: Brassica napus; for plant injury at 16 g/ha: 16 g ai/ha; for plant injury at 31 g/ha: 31 g ai/ha; for plant injury at 62 g/ha: 62 g ai/ha; for plant injury at 125 g/ha: 125 g ai/ha
In short: as §1

[7] = tested on: soybean (Glycine max); experiment: Test D pre-/postemergence plant response; settings: Glycine max, post-emergence, Postemergence
In short: as §1

[8] = post-emergence, Postemergence, scale 0 to 100 (0 no effect, 100 complete control), read-out: Waterhemp plant response rating
[9] = post-emergence, Postemergence, scale 0 to 100, 0 no effect, 100 complete control, read-out: Plant response rating, Waterhemp
[10] = pre-emergence, Preemergence, scale 0 to 100 (0 no effect, 100 complete control), read-out: Plant response rating, Waterhemp
[11] = post-emergence, Postemergence, scale 0 to 100 (0 no effect, 100 complete control), read-out: Nutsedge, Yellow plant response rating
[12] = post-emergence, Postemergence, scale 0 to 100, 0 no effect, 100 complete control, read-out: Plant response rating, Nutsedge, Yellow
[13] = pre-emergence, Preemergence, scale 0 to 100 (0 no effect, 100 complete control), read-out: Plant response rating, Nutsedge, Yellow
[14] = post-emergence, Postemergence, read-out: Barnyardgrass plant response rating
[15] = post-emergence, Postemergence, scale 0 to 100, 0 no effect, 100 complete control, read-out: Plant response rating, Barnyardgrass
[16] = pre-emergence, Preemergence, read-out: Plant response rating (scale 0 to 100), Barnyardgrass
[17] = pre-emergence, Preemergence, read-out: Plant response rating, Barnyardgrass
[18] = post-emergence, Postemergence, scale 0 to 100 (0 no effect, 100 complete control), read-out: Foxtail, Giant plant response rating
[19] = post-emergence, Postemergence, scale 0 to 100, 0 no effect, 100 complete control, read-out: Plant response rating, Foxtail, Giant
[20] = pre-emergence, Preemergence, scale 0 to 100 (0 no effect, 100 complete control), read-out: Plant response rating, Foxtail, Giant
[21] = post-emergence, Postemergence, scale 0 to 100 (0 no effect, 100 complete control), read-out: Oilseed Rape plant response rating
[22] = post-emergence, Postemergence, scale 0 to 100, 0 no effect, 100 complete control, read-out: Plant response rating, Oilseed Rape
[23] = pre-emergence, Preemergence, scale 0 to 100 (0 no effect, 100 complete control), read-out: Plant response rating, Oilseed Rape

**Q.** With `Fc1cccc(Oc2ncc(Cl)cn2)c1-c1cc(C(F)F)on1` [Compound 55, 5-chloro-2-[2-[5-(difluoromethyl)-3-isoxazolyl]-3-fluorophenoxy]pyrimidine] as the compound, how does the pest or weed control at 16 g/ha ([1]; 16 g ai/ha, scale 0 to 100 (0 no effect, 100 complete control), read-out: Chickweed plant response rating) read?
**A.** 70%

**Q.** What about the pest or weed control at 31 g/ha ([1]; 31 g ai/ha, scale 0 to 100 (0 no effect, 100 complete control), read-out: Chickweed plant response rating) of the same compound?
**A.** 75%

**Q.** And the pest or weed control at 62 g/ha ([1]; 62 g ai/ha, scale 0 to 100, 0 no effect, 100 complete control, read-out: Plant response rating, Chickweed)?
**A.** 98%

**Q.** And the pest or weed control at 125 g/ha ([1]; 125 g ai/ha, scale 0 to 100, 0 no effect, 100 complete control, read-out: Plant response rating, Chickweed)?
**A.** 100%

**Q.** And the pest or weed control at 16 g/ha [2, 8]?
**A.** 85%

**Q.** And the pest or weed control at 31 g/ha [2, 8]?
**A.** 90%

**Q.** What about the pest or weed control at 62 g/ha [2, 9] of the same compound?
**A.** 98%

**Q.** What about the pest or weed control at 125 g/ha [2, 9] of the same compound?
**A.** 100%

**Q.** And the pest or weed control at 125 g/ha ([2]; pre-emergence, Preemergence, read-out: Plant response rating (scale 0 to 100), Waterhemp)?
**A.** 100%

**Q.** What about the pest or weed control at 16 g/ha [2, 10] of the same compound?
**A.** 100%

**Q.** What about the pest or weed control at 31 g/ha [2, 10] of the same compound?
**A.** 100%

**Q.** What about the pest or weed control at 62 g/ha [2, 10] of the same compound?
**A.** 100%

**Q.** What about the pest or weed control at 16 g/ha [3, 11] of the same compound?
**A.** 0%

**Q.** What about the pest or weed control at 31 g/ha [3, 11] of the same compound?
**A.** 5%

**Q.** And the pest or weed control at 62 g/ha [3, 12]?
**A.** 5%

**Q.** And the pest or weed control at 125 g/ha [3, 12]?
**A.** 5%

**Q.** And the pest or weed control at 125 g/ha ([3]; pre-emergence, Preemergence, read-out: Plant response rating (scale 0 to 100), Nutsedge, Yellow)?
**A.** 70%

**Q.** And the pest or weed control at 16 g/ha [3, 13]?
**A.** 0%

**Q.** And the pest or weed control at 31 g/ha [3, 13]?
**A.** 10%

**Q.** What about the pest or weed control at 62 g/ha [3, 13] of the same compound?
**A.** 55%

**Q.** What about the pest or weed control at 16 g/ha [4, 14] of the same compound?
**A.** 5%

**Q.** And the pest or weed control at 31 g/ha [4, 14]?
**A.** 10%

**Q.** And the pest or weed control at 62 g/ha [4, 15]?
**A.** 15%

**Q.** What about the pest or weed control at 125 g/ha [4, 15] of the same compound?
**A.** 15%

**Q.** What about the pest or weed control at 62 g/ha [4, 16] of the same compound?
**A.** 100%

**Q.** What about the pest or weed control at 125 g/ha [4, 16] of the same compound?
**A.** 100%

**Q.** And the pest or weed control at 16 g/ha [4, 17]?
**A.** 25%

**Q.** What about the pest or weed control at 31 g/ha [4, 17] of the same compound?
**A.** 85%

**Q.** And the pest or weed control at 16 g/ha [5, 18]?
**A.** 40%

**Q.** What about the pest or weed control at 31 g/ha [5, 18] of the same compound?
**A.** 50%

**Q.** What about the pest or weed control at 62 g/ha [5, 19] of the same compound?
**A.** 40%

**Q.** And the pest or weed control at 125 g/ha [5, 19]?
**A.** 75%

**Q.** And the pest or weed control at 125 g/ha ([5]; pre-emergence, Preemergence, read-out: Plant response rating (scale 0 to 100), Foxtail, Giant)?
**A.** 100%

**Q.** And the pest or weed control at 16 g/ha [5, 20]?
**A.** 100%

**Q.** And the pest or weed control at 31 g/ha [5, 20]?
**A.** 100%

**Q.** What about the pest or weed control at 62 g/ha [5, 20] of the same compound?
**A.** 100%

**Q.** And the plant injury at 16 g/ha [6, 21]?
**A.** 95%

**Q.** What about the plant injury at 31 g/ha [6, 21] of the same compound?
**A.** 95%

**Q.** And the plant injury at 62 g/ha [6, 22]?
**A.** 100%

**Q.** And the plant injury at 125 g/ha [6, 22]?
**A.** 100%

**Q.** What about the plant injury at 125 g/ha ([6]; pre-emergence, Preemergence, read-out: Plant response rating (scale 0 to 100), Oilseed Rape) of the same compound?
**A.** 100%

**Q.** And the plant injury at 16 g/ha [6, 23]?
**A.** 100%

**Q.** What about the plant injury at 31 g/ha [6, 23] of the same compound?
**A.** 100%

**Q.** And the plant injury at 62 g/ha [6, 23]?
**A.** 100%

**Q.** And the plant injury at 16 g/ha ([7]; 16 g ai/ha, scale 0 to 100 (0 no effect, 100 complete control), read-out: Soybean plant response rating)?
**A.** 65%

**Q.** What about the plant injury at 31 g/ha ([7]; 31 g ai/ha, scale 0 to 100 (0 no effect, 100 complete control), read-out: Soybean plant response rating) of the same compound?
**A.** 75%

**Q.** What about the plant injury at 62 g/ha ([7]; 62 g ai/ha, scale 0 to 100, 0 no effect, 100 complete control, read-out: Plant response rating, Soybean) of the same compound?
**A.** 90%
